Laboratory results from PubChem BioAssay (NCI).
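96-well plates; 48 h exposure; 5 concentrations. Endpoints by linear interpolation between flanking doses. Not reached: highest tested concentration assigned. Abbreviation: GI50, concentration required for 50% inhibition of growth. TGI is the concentration that stops growth completely.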 Where a SMILES comes first, the peptide text is derived from it. [ ]: non-standard residue; d: D form. The star is where a group is joined. Phe(4-NO2) = N[CH](Cc1ccc([N+](=O)[O-])cc1)C(=O)O; Boc = CC(C)(C)OC(=O)*

Tests used:
Test in all cases: NCI-60 cell line screen, 48 h
HCT-116 colon = test system: HCT-116 colon
HL-60(TB) leukemia = test system: HL-60(TB) leukemia
MDA-MB-231 breast = test system: MDA-MB-231 breast
NCI-H460 lung = test system: NCI-H460 lung
OVCAR-3 ovarian = test system: OVCAR-3 ovarian
OVCAR-4 ovarian = test system: OVCAR-4 ovarian
RPMI-8226 leukemia = test system: RPMI-8226 leukemia
SF-539 CNS = test system: SF-539 CNS
SN12C renal = test system: SN12C renal
SNB-19 CNS = test system: SNB-19 CNS
SW-620 colon = test system: SW-620 colon

SMILES | TGI (HCT-116 colon) | TGI (HL-60(TB) leukemia) | TGI (MDA-MB-231 breast) | TGI (NCI-H460 lung) | TGI (OVCAR-3 ovarian) | TGI (OVCAR-4 ovarian) | TGI (RPMI-8226 leukemia) | TGI (SF-539 CNS) | TGI (SN12C renal) | TGI (SNB-19 CNS) | TGI (SW-620 colon) | GI50 (HCT-116 colon) | GI50 (HL-60(TB) leukemia) | GI50 (MDA-MB-231 breast) | GI50 (NCI-H460 lung) | GI50 (OVCAR-3 ovarian) | GI50 (RPMI-8226 leukemia) | GI50 (SN12C renal) | GI50 (SNB-19 CNS) | GI50 (SW-620 colon)
CCCCCCCCCCCCCCCCCCN(C)CC(COP(=O)([O-])OCC[N+](C)(C)C)OC (centres undefined) | 43.3 µM | 11.1 µM | > 100 µM | 12.2 µM | 51.6 µM | 29.6 µM | 18.6 µM | 40.3 µM | > 50.6 µM | 18.5 µM | 47 µM | – | – | – | – | – | – | – | – | –
CNC(=O)CCC(NC(=O)OC(C)(C)C)C(=O)NC(Cc1ccc([N+](=O)[O-])cc1)C(=O)NCC(=O)NC (centres undefined) (Boc-Glu(NHMe)-[Phe(4-NO2)]-Gly-NHMe; configuration not given here) | > 100 µM | > 100 µM | > 100 µM | > 100 µM | > 100 µM | > 100 µM | > 100 µM | > 100 µM | > 100 µM | > 100 µM | > 100 µM | – | – | – | – | – | – | – | – | –
Nn1c(Cc2ccc([N+](=O)[O-])cc2)n[nH]c1=O | > 100 µM | > 100 µM | > 100 µM | > 100 µM | > 100 µM | > 100 µM | > 100 µM | > 100 µM | > 100 µM | > 100 µM | > 100 µM | – | – | – | – | – | – | – | – | –
CCCCCCCCCCCCC(O)[C@H]1CC[C@H](C(O)CCCCCC(=O)CCCCC2CC(C(C)=O)C(=O)O2)O1 (some centres undefined) | 36 µM | > 29.5 µM | 44.6 µM | 22.5 µM | 19.3 µM | 39.4 µM | > 27.8 µM | 35.6 µM | 29 µM | 73.9 µM | > 100 µM | 7.23 µM | 2.68 µM | 2.8 µM | 9.67 µM | 2.25 µM | 2.12 µM | 12.9 µM | 4.56 µM | 4.08 µM
O=C(O)CN1C(=O)C(Cc2ccc(O)cc2)N=C(c2cccc(O)c2)c2ccccc21 (centres undefined) | > 100 µM | > 100 µM | > 100 µM | > 100 µM | > 100 µM | > 100 µM | > 100 µM | > 100 µM | 34.8 µM | > 100 µM | > 100 µM | – | – | – | – | – | – | – | – | –
CC1(C)CCC[C@]2(C)[C@H]3[C@H](C#N)c4cc(O)c(O)cc4O[C@@]3(C)CC[C@@H]12 | – | > 10 µM | > 10 µM | > 10 µM | > 10 µM | > 10 µM | > 10 µM | > 10 µM | > 10 µM | > 10 µM | > 10 µM | – | – | – | – | – | – | – | – | –
CC(=O)OCC1OC(n2c(-c3ccc(C)cc3)cc(-c3ccccc3)c(C#N)c2=S)C(OC(C)=O)C(OC(C)=O)C1OC(C)=O (centres undefined) | > 100 µM | > 100 µM | > 100 µM | > 100 µM | > 100 µM | > 100 µM | > 100 µM | > 100 µM | > 100 µM | > 100 µM | > 100 µM | – | – | – | – | – | – | – | – | –
O=[N+]([O-])c1ccc(N/N=C/c2ccc(OCCCCCCCCCCCO)cc2)c([N+](=O)[O-])c1 | > 43.7 µM | 31.2 µM | > 94.7 µM | 12.1 µM | > 100 µM | 13.7 µM | > 100 µM | 4.22 µM | 14.3 µM | 27.1 µM | > 100 µM | – | – | – | – | – | – | – | – | –
C=CCc1cccc2cc(C(=O)Nc3ccccn3)c(=N)oc12 | > 100 µM | > 100 µM | > 100 µM | > 100 µM | > 100 µM | > 100 µM | > 100 µM | > 100 µM | > 100 µM | > 100 µM | > 100 µM | – | – | – | – | – | – | – | – | –
O=C(Nc1nc(C23CC4CC(CC(C4)C2)C3)cs1)c1cc2ccccc2oc1=O | > 100 µM | > 100 µM | > 100 µM | > 100 µM | > 100 µM | > 100 µM | > 100 µM | > 100 µM | > 100 µM | > 100 µM | > 100 µM | – | – | – | – | – | – | – | – | –
CCOC(=O)c1ccc(N=c2sc3ccccc3nc2Nc2ccc(C(=O)OCC)cc2)cc1 | > 100 µM | > 100 µM | > 100 µM | > 100 µM | – | > 100 µM | > 100 µM | > 100 µM | > 100 µM | > 100 µM | > 100 µM | – | – | – | – | – | – | – | – | –
COc1ccc2nc(-c3ccc(O)cc3)sc2c1 | 32.7 µM | 53.5 µM | 46.9 µM | > 100 µM | 36.2 µM | 44.5 µM | 0.678 µM | 37.1 µM | 39.5 µM | > 100 µM | 44.5 µM | – | – | – | – | – | – | – | – | –
CO/N=C(\C)c1cccc(Nc2c3ccccc3nc3occc23)c1 | 21.2 µM | 13.6 µM | 26.1 µM | 23.7 µM | 19 µM | 18 µM | 27.7 µM | 21.5 µM | 38 µM | 45.5 µM | – | – | – | – | – | – | – | – | – | –
